Values quoted from earlier work as cited in publication PMC7395068, “The evolution of strategies to minimise the risk of human drug-induced liver injury (DILI) in drug discovery and development” (Archives of Toxicology, 2020).
Like-named read-outs stand apart in the source and are kept apart here.

Tests used:
[1] = ref Chen 2011; cited from earlier work
[2] = tested on: hLiMTs; conditions: cited from earlier work
[3] = tested on: HepG2 C3A spheroid, BSEP, Glu/Gal in HepG2 cells, bioactivation; conditions: cited from earlier work
[4] = tested on: HepG2 cells; conditions: cited from earlier work
[5] = tested on: human hepatocytes; conditions: cited from earlier work
[6] = cited from earlier work
[7] = tested on: PHH spheroids; conditions: In vitro Assay; ref Vorrink 2018; cited from earlier work
[8] = tested on: PHH; conditions: cited from earlier work
[9] = tested on: primary human hepatocytes, NIH3T3 fibroblasts, BSEP, CYP3A4; conditions: In vitro Assay; ref Schadt 2015; cited from earlier work
[10] = tested on: HepG2 cells, primary human hepatocytes; conditions: cited from earlier work
[11] = tested on: hu-MPCC; conditions: cited from earlier work
[12] = ref Chen 2016; cited from earlier work
[13] = tested on: RMPCC's; conditions: cited from earlier work
[14] = tested on: HepG2 cells; conditions: In vitro Assay; ref O'Brien 2006; cited from earlier work
[15] = tested on: isolated mouse liver mitochondria; conditions: In vitro Assay; ref Porceddu 2012; cited from earlier work
[16] = tested on: HepG2 cells; conditions: In vitro Assay; ref Tolosa 2012; cited from earlier work
[17] = tested on: THLE or HepG2 cells, isolated mitochondria, BSEP; conditions: In vitro Assay; ref Aleo 2019; cited from earlier work
[18] = In vitro Assay, ref Proctor 2017
[19] = In vitro Assay, ref Khetani 2012

## CNCCC(Oc1ccc(C(F)(F)F)cc1)c1ccccc1 (stereo not drawn) [fluoxetine]
[1]
  DILI Score (FDA) (1-8): 3
[2]
  hLiMTs ATP <100uM: +VE (key: +VE: IC50 threshold of 100 µM)
[3]
  Bayesian Machine Learning: +VE
[4]
  Cluser analysis: +VE
[5]
  Structural based (HCI): -VE
[6]; […]
  In vivo DILI: -VE
[6]; ref Aleo 2019
  In vivo DILI: +VE
[6]; ref Garside 2014
  In vivo DILI: +VE
[6]; ref Khetani 2012
  In vivo DILI: -VE
[6]; ref Persson 2013
  In vivo DILI: +VE
[6]; ref Proctor 2017
  In vivo DILI: +VE
[6]; ref Schadt 2015
  In vivo DILI: -VE
[6]; ref Tolosa 2012
  In vivo DILI: +VE
[6]; ref Vorrink 2018
  In vivo DILI: -VE
[6]; ref Williams 2019
  In vivo DILI: +VE
[6]; ref Xu 2008
  In vivo DILI: -VE
[7]
  hLiMTs ATP <20 x Cmax: -VE
[8]
  PHH ATP <100uM: -VE
[9]
  Cellular toxicity (3T3 cells): +VE
  Combined Assay: -VE
  GSH adduct HML: -VE
  Hepatocyte cellular toxicity: -VE
  MitoTox 3T3: -VE
  TDI CYP3A4: -VE
  hBSEP inhibition: -VE
[10]
  Cluster 1-6 +VE Assay: +VE
[11]
  HMPCC's: -VE
[12]
  DILI +VE (5-8), DILI -VE (-4): +VE
  DILI severity category: vLess-DILI-Concern
[13]
  RMPCC's: -VE

## CN(C)CCCN1c2ccccc2CCc2ccccc21 [imipramine]
[14]
  Structural based (HCI): +VE
[2]; [18]
  hLiMTs ATP <100uM: +VE (IC50 threshold of 100 µM)
[3]; In vitro Assay, ref Williams 2019
  Bayesian Machine Learning: +VE
[4]; In vitro Assay, ref Persson 2013
  Structural based (HCI): +VE
[6]; […]
  In vivo DILI: +VE
[6]; ref Aleo 2019
  In vivo DILI: +VE
[6]; ref Garside 2014
  In vivo DILI: +VE
[6]; ref Khetani 2012
  In vivo DILI: +VE
[6]; ref O'Brien 2006
  In vivo DILI: +VE
[6]; ref Persson 2013
  In vivo DILI: +VE
[6]; ref Porceddu 2012
  In vivo DILI: +VE
[6]; ref Proctor 2017
  In vivo DILI: +VE
[6]; ref Schadt 2015
  In vivo DILI: -VE
[6]; ref Tolosa 2012
  In vivo DILI: +VE
[6]; ref Vorrink 2018
  In vivo DILI: +VE
[6]; ref Williams 2019
  In vivo DILI: +VE
[6]; ref Xu 2008
  In vivo DILI: +VE
[7]
  hLiMTs ATP <20 x Cmax: +VE (IC20 < 20 × Cmax.tot cut-off)
[15]
  in vitro data EC2<=1x Cmax: -VE
  in vitro data EC20<=2uM: +VE
[8]; [18]
  PHH ATP <100uM: +VE (IC50 threshold of 100 µM)
[11]; [19]
  HMPCC's: +VE
[16]
  Structural based (HCI): +VE
[12]
  DILI +VE (5-8), DILI -VE (-4): +VE
  DILI severity category: vLess-DILI-Concern
[13]; [19]
  RMPCC's: -VE
[17]
  Ro2 Hybrid HRM Score: +VE
